Entries after “also recorded” stand apart in the source; their conditions may differ. Non-standard residues stand in square brackets, D forms with d. Residues, ends and D or L forms follow the SMILES beside them. *: point of attachment. Biotin = O=C1N[C@H]2[C@H](CS[C@H]2CCCCC(=O)*)N1; Benzoyl(4-SO2F) = O=C(c1ccc(S(=O)(=O)F)cc1)*; pY = N[C@@H](Cc1ccc(OP(=O)(O)O)cc1)C(=O)O; Dap = NC[C@H](N)C(=O)O
Assays:
[1] = tested on: Nck-SH2; experiment: Competitive pull-down of Nck with biotinylated Y474; assay type: binding; details: with or without p1
Method: (§1) In addition, we performed the reaction between p1 and Nck in a cell lysate, representing a complex solution. We incubated peptide p1 with the lysate of Caco-2 cells overexpressing Nck, and the reaction mixture was resolved on SDS-PAGE and analyzed with Western blotting against an anti-Nck antibody. […] Next, we incubated biotinylated peptide Y474 and Nck solutions with or without p1 peptide, and pulled down proteins that bound with biotinylated Y474.

[2] = tested on: EPEC infection of Caco-2 cells; experiment: EPEC infection assay of Caco-2 cells (CFU counts); assay type: cell-based, enteropathogenic Escherichia coli; details: L17E 40 μM
Method: Lastly, to examine whether pretreatment of Caco-2 cells with L17E/p1 could prevent EPEC infection, we first established a bacterial infection assay (Figure 7a). Caco-2 cells were pretreated with L17E/p1 for 2 h. After excess peptides were removed, Caco-2 cells were then infected with EPEC at different multiplicity of infection (MOI) values (MOI is commonly defined as the ratio of infectious bacteria to cells in a culture) for 3 h, and extra bacterial cells were removed from the culture. Next, gentamicin was added to the cell culture to remove EPEC that are merely attached to the surface of Caco-2 cells, leaving only engulfed EPEC inside Caco2 cells to be counted (gentamicin treatment will not kill intracellular bacteria due to its cellular impermeability). After gentamicin was washed away, cells were lysed to release EPEC cells inside, and the cell lysates were diluted to count the number of EPEC cells as colony-forming units (cfu) on agar plates.
Caco-2 cells were seeded in a 24-well plate at a density of 1×10^4 cells for 24 h and pretreated with peptide complexes for 2 h. After washing with DMEM, cells were infected with EPEC at selected MOI values for 3 h at 37 ℃. Cells were then treated with gentamicin ([…]) for 2 h and lysed with 1% […]
Triton X-100 for 15 min. […]
The sample was loaded onto 12% SDS/PAGE glycerol gel and then transferred onto a PVDF membrane using Bio-Rad […]. The membrane was blocked and incubated with a rabbit anti-Nck antibody (Abcam, Hong Kong) at 4 °C overnight, followed by a n anti -rabbit HRP -labeled secondary antibody (Abcam, Hong Kong).
SPSS 23.0 statistical software was used to process experimental data. The differences between mean ± SEM of three independent experiments were assessed by Student's t -test.

[3] = tested on: Nck-SH2; experiment: Mass spectrometric analysis of Nck-p1 conjugate; assay type: binding
Method: We next identified the residues in Nck-SH2 that are involved in the reaction with p1 by mass spectrometry. […] The Nck–p1 conjugate was digested with trypsin, and peptide fragments were analyzed with an in-line EASY-spray source and nano-LC UltiMate 3000 HPLC system interfaced with an Elite mass spectrometer, operated in the data-dependent acquisition (DDA) mode with one full MS scan at R = 60,000 (m/z = 200) mass followed by HCD MS/MS scans. […] The fragmentation spectral analysis of [EEHIpYXEVAAD(α)] + [HFKVQLK(β)] extracted by pLabel v2.4.3.0 (Figure 5a and Figure S6 in the Supporting Information)[38],[39] confirmed the ligand-directed conjugation of Nck-SH2 protein with p1 peptide. The underlined lysine residue in the β-chain sequence indicated the cross-linked site on the predicted Nck Lys331 residue. Next, we mutated Nck Lys331 to Ala, expressed and purified the Nck-SH2K331A mutant. […]
The reaction mixture of Nck and p1 were digested with trypsin. Digested peptides were analyzed with an in-line EASY-spray source and nano-LC UltiMate 3000 high-performance liquid chromatography system (Thermo Fisher, USA) interfaced with an Elite mass spectrometer (Thermo Fisher, USA). The eluted peptides were detected by the Elite mass spectrometer, which was operated in data-dependent mode with one full MS scan at R = 60,000 (m/z = 200) mass, followed by MS/MS scans. […]

[4] = molecular target: T1, Nck (Homo sapiens, UniProt P16333); experiment: Reaction of peptides with Nck in Caco-2 cell lysate (Western blotting); assay type: binding; details: lysate of Caco-2 cells (5 µg/µl) overexpressing Nck; peptide 10 µM, 37 °C, 60 min; anti-Nck Western blot
T1 construct: GST (followed by PreScission/HRV 3C site) (N, cleaved yes); made in house; host or cells: E. coli BL21(DE3)
Method: as §1
Figure S7. Reaction of p1 in cell lysate. Biotinylated p1 peptide (10 µM) was incubated with the
lysate of Caco-2 cells (5 µg/µl)to react at 37 °C for 60 min before the mixture was resolved on SDS-
PAGE. Western blotting experiments using an anti-biotin antibody and an anti-Nck antibody, […]

CC[C@H](C)[C@H](NC(=O)[C@H](Cc1c[nH]cn1)NC(=O)[C@H](CCC(=O)O)NC(=O)[C@H](CCC(=O)O)NC(=O)CCCC[C@@H]1SC[C@@H]2NC(=O)N[C@@H]21)C(=O)N[C@@H](Cc1ccc(OP(=O)(O)O)cc1)C(=O)N[C@@H](CNC(=O)c1ccc(S(=O)(=O)F)cc1)C(=O)N[C@@H](CCC(=O)O)C(=O)N[C@H](C(=O)N[C@@H](C)C(=O)N[C@@H](C)C(=O)N[C@@H](CC(=O)O)C(N)=O)C(C)C [p1] (Biotin-EEHI[pY][Dap](Benzoyl(4-SO2F))EVAAD-NH2; N-terminus and C-terminus assumed)
binding of Nck to biotinylated Y474 in pull-down [1]: the Nck protein did not bind with Y474
efficacy compared with Y474 in anti-infection assay ([2]; p1 vs Y474 at lower concentrations): significantly higher efficacy than Y474 at lower concentrations
blockage of EPEC invasion/infection of Caco-2 cells ([2]; with L17E-mediated delivery): rendered Caco-2 cells resistant to EPEC infection; also recorded: can block EPEC invasion to Caco-2 cells
conjugation stoichiometry by LC-MS ([3]; Nck and Nck-p1 conjugate): only one p1 was conjugated with Nck
reaction site on Nck-SH2 ([3]; trypsin digest, MS/MS, K331A mutation): Lys331
Nck band shift in cell lysate [4]: complete band shift
